Here are results for six compounds from BindingDB's records for doi:10.1021/acs.jmedchem.2c01800 (China Pharmaceutical University, 2023).

Molecules are shown by their SMILES.

For test [1], the target named is T1, Signal transducer and activator of transcription 3 (Homo sapiens, UniProt P40763). Briefly: Inhibition of IL-23 induced STAT3 phosphorylation in human KIT225 cells by AlphaLISA assay. Background: Alpha assays give light when donor and acceptor beads are brought close together.
Test [2] concerns the target T1, Signal transducer and activator of transcription 3. Briefly: Inhibition of IL-6 induced STAT3 phosphorylation in human TF-1 cells by AlphaLISA assay.
Test [3] has the same target. Briefly: Inhibition of IL-23 induced STAT3 phosphorylation in human Jurkat cells incubated for 30 mins by microplate reader analysis.

T1 sequence (P40763 whole entry): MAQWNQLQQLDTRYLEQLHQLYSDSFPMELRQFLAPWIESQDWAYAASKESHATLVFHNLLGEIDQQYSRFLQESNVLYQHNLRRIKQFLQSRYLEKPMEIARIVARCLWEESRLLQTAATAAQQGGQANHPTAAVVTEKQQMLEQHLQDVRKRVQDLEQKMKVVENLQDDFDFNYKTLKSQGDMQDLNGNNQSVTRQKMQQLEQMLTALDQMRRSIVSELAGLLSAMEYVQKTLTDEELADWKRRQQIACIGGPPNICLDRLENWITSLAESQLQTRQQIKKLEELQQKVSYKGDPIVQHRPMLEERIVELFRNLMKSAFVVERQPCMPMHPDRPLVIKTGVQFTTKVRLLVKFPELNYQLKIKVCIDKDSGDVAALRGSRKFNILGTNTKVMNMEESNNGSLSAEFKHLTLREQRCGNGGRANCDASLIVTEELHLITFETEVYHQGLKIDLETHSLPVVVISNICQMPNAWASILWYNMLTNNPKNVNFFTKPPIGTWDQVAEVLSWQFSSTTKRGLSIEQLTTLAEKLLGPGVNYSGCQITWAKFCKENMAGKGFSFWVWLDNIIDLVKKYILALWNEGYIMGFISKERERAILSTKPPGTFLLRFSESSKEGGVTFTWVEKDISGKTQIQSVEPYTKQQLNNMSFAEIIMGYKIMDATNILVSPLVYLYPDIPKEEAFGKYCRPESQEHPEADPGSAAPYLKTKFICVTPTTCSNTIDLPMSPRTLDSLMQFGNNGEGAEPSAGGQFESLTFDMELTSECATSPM

As for `CNC(=O)c1nnc(NC(=O)N2CCC2)cc1Nc1cccc(-c2ncn(C)n2)c1OC` [US11053219, Example 28], the half-maximal inhibitory concentration (IC50) was determined as 0.028 µM in test [1] and 5.9 µM in test [2]. With `CNc1cc(Nc2ccccc2OC)nc2c(C(=O)N[C@@H]3CCN(C)C3=O)cnn12`, inhibition in test [1] was half-maximal at 0.009 µM (IC50).

Turning to `[2H]C([2H])([2H])NC(=O)c1nnc(Nc2ccc(N3CC(O)C3)cn2)cc1Nc1cccc(-c2ncn(C)n2)c1OC`, 0.0059 µM corresponded to half-maximal inhibition in test [1] (IC50).

Compound `CCOc1cccc(Nc2cc(NC)n3ncc(C(=O)N[C@@H]4CCN(C)C4=O)c3n2)n1` had an IC50 in test [1] of 0.029 µM. Turning to `[2H]C([2H])([2H])NC(=O)c1nnc(NC(=O)C2CC2)cc1Nc1cccc(-c2ncc(-c3cccnc3C(F)(F)F)cn2)c1OC`, in test [3], the IC50 is 0.0024 µM. `CNc1cc(Nc2cccn(-c3ccccn3)c2=O)nc2c(C(=O)N[C@@H]3CCN(C)C3=O)cnn12` showed an IC50 in test [1] of 0.065 µM.

For orientation: IC50 means the concentration that gives 50% inhibition. High values mean lower potency, low ones higher potency.
